Source: the supplement of paper PMC10307832

How the values were obtained:
Assay in all cases: relative viability (nuclei count vs DMSO), 5 days (fraction); higher = more cells survive
[1] = compound: OCc1c[nH]c2ccccc12 [Indole-3-carbinol] + CC(C)C[C@H](NC(=O)[C@H](Cc1ccccc1)NC(=O)c1cnccn1)B(O)O [Bortezomib] (partner 0.002 µM)
Procedure, shortened: (§1)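 Dosing by pin tool came one day after lung cancer cell lines were seeded in 1536-well plates, using either one drug or a fixed anchor-drug dose plus five library-drug doses (not always all listed) in √10 steps. After 5 days, nuclei were counted on 4× images. Relative viability is treated-well nuclei count divided by vehicle-well nuclei count, and values are medians of duplicate plates.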

[2] = compound: OCc1c[nH]c2ccccc12 [Indole-3-carbinol] + C[C@]1(O)C[C@@H](c2nc(-c3ccc4ccc(-c5ccccc5)nc4c3)c3c(N)nccn32)C1 [Linsitinib] (partner 1 µM)
Procedure, shortened: as §1

[3] = compound: OCc1c[nH]c2ccccc12 [Indole-3-carbinol] + N=C(N)NC(=N)NCCc1ccccc1 [Phenformin] (partner 250 µM)
Procedure, shortened: as §1

[4] = compound: OCc1c[nH]c2ccccc12 [Indole-3-carbinol] + NC(=O)Nc1cc(-c2cccc(F)c2)sc1C(=O)N[C@H]1CCCNC1 [AZD7762] (partner 0.2 µM)
Procedure, shortened: as §1

[5] = compound: OCc1c[nH]c2ccccc12 [Indole-3-carbinol] + Nc1ncn([C@H]2C[C@H](O)[C@@H](CO)O2)c(=O)n1 [Decitabine] (partner 2 µM)
Procedure, shortened: as §1

Cell Line	relative viability ([1]; first compound 0.253 µM)	relative viability ([1]; first compound 0.8 µM)	relative viability ([1]; first compound 2.53 µM)	relative viability ([1]; first compound 8 µM)	relative viability ([2]; first compound 0.253 µM)	relative viability ([2]; first compound 0.8 µM)	relative viability ([2]; first compound 2.53 µM)	relative viability ([2]; first compound 8 µM)	relative viability ([3]; first compound 0.253 µM)	relative viability ([3]; first compound 0.8 µM)	relative viability ([3]; first compound 2.53 µM)	relative viability ([3]; first compound 8 µM)	relative viability ([4]; first compound 0.253 µM)	relative viability ([4]; first compound 0.8 µM)	relative viability ([4]; first compound 2.53 µM)	relative viability ([4]; first compound 8 µM)	relative viability ([5]; first compound 0.253 µM)	relative viability ([5]; first compound 0.8 µM)	relative viability ([5]; first compound 2.53 µM)	relative viability ([5]; first compound 8 µM)
201T	1.17	0.996	1.11	1.1	1.03	0.975	1.1	1.05	0.42	0.478	0.505	0.446	0.623	0.591	0.614	0.725	0.819	0.834	0.885	0.844
A549	–	–	–	–	0.656	0.578	0.697	0.545	0.18	0.226	0.254	0.156	–	–	–	–	0.271	0.287	0.272	0.235
A-427	0.937	0.992	1.03	0.886	1.1	1.06	1.09	1.08	0.35	0.351	0.339	0.298	0.72	0.763	0.908	0.778	0.53	0.542	0.607	0.547
ABC-1	0.297	0.292	0.324	0.33	0.931	1.04	0.82	0.706	0.254	0.238	0.265	0.259	0.72	0.974	0.618	0.833	0.993	1.14	1.12	1.24
BEN	0.91	0.729	0.966	0.727	0.863	0.827	0.84	0.847	0.269	0.262	0.265	0.253	0.635	0.706	0.732	0.784	0.689	0.784	0.726	0.749
CAL-12T	0.983	1	0.842	0.819	0.835	0.846	0.832	0.71	0.584	0.553	0.58	0.559	0.608	0.631	0.733	0.536	–	–	–	–
COR-L23	0.926	1.14	0.899	0.883	0.962	0.862	0.993	0.786	0.413	0.456	0.41	0.403	–	–	–	–	0.428	0.465	0.414	0.385
COR-L 105	0.847	0.733	0.812	0.806	0.693	0.767	0.99	0.65	0.497	0.408	0.488	0.416	–	–	–	–	0.607	0.598	0.631	0.626
ChaGo-K-1	0.871	0.988	0.896	1.06	–	–	–	–	0.479	0.475	0.551	0.443	1	0.853	0.932	0.869	0.523	0.55	0.525	0.519
EKVX	1.24	1.1	1.12	1.04	1.03	1.03	0.973	0.976	0.232	0.223	0.227	0.234	0.759	0.752	0.744	0.633	0.326	0.353	0.326	0.381
EMC-BAC-2	0.994	1.01	1.08	1.02	0.827	0.823	0.806	0.771	0.528	0.536	0.489	0.413	1.15	1.17	1.05	1.11	0.953	0.96	0.957	0.889
EPLC-272H	1.27	0.925	0.985	0.837	1.38	1.28	1.24	1.11	0.347	0.292	0.285	0.258	0.26	0.236	0.18	0.214	0.364	0.359	0.388	0.356
H3255	0.899	0.852	0.748	0.732	0.916	0.983	0.928	0.897	0.397	0.385	0.414	0.343	0.892	0.755	0.911	0.747	0.658	0.561	0.517	0.68
HARA	1.2	1.06	1.11	1.06	0.92	0.979	1.06	0.978	0.484	0.479	0.554	0.435	0.355	0.239	0.313	0.463	0.566	0.549	0.637	0.47
HCC-15	1.08	1.08	1.1	1.06	0.845	1.02	0.824	0.843	0.54	0.556	0.472	0.468	1.31	1.14	1.38	1.26	0.66	0.682	0.64	0.664
HCC-44	0.911	1.03	0.888	0.869	0.74	0.705	0.614	0.625	0.168	0.198	0.187	0.295	1.03	1.03	1	0.967	0.983	0.986	0.971	0.91
HCC-78	0.416	0.51	0.403	0.554	0.534	0.449	0.547	0.538	0.654	0.626	0.667	0.845	0.623	0.608	0.643	0.696	0.681	0.715	0.676	0.741
